According to PMC12264943, “Identification of New Human P2X7 Antagonists Using Ligand- and Structure-Based Virtual Screening” (Journal of Chemical Information and Modeling, 2025):
Like-named read-outs stand apart in the source and are kept apart here.

Key:
[1] = molecular target: T1, hP2X7 (Homo sapiens, UniProt Q99572); assay: YO-PRO 1 dye uptake assay, HEK-293 cells stably transfected with hP2X7; assay type: cell-based; conditions: for EC50: read-out: ATP EC50
T1 construct: expressed in transfected cells; host or cells: HEK-293, stably transfected (gift of E. Adinolfi's group, Ferrara University)
T1 sequence (Q99572 1-595): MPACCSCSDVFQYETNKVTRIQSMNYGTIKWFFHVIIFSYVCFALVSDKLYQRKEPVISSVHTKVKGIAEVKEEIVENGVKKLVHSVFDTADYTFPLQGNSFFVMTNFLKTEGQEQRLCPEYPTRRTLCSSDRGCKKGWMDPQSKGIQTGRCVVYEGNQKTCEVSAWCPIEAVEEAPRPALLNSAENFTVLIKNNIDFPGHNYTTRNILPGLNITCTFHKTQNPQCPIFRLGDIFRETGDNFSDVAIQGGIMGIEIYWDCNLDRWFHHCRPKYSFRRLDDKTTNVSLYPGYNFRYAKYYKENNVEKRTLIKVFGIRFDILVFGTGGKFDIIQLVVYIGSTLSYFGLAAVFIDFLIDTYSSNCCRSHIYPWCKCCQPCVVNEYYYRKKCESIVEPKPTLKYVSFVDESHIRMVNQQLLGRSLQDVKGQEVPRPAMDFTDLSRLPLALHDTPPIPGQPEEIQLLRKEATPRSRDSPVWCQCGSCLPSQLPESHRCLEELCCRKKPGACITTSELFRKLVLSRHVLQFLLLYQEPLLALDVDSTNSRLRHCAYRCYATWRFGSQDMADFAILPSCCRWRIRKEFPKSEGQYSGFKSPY
Procedure: Astrocytoma 1321 N1 (established by Dr. Gaia Pasqualetto) and HEK-293 (kindly gifted by E. Adinolfi’s group, Ferrara University) both stably transfected with hP2X7, were used to assess the activity of the small molecules selected from the VS. Cells were maintained in DMEM:F12 (PanBiotech) supplemented with 10% FBS, 1% pen-strep, and 150 μg/mL G418 (PanBiotech).
Astrocytoma 1321 N1 cells (2–2.5 × 10^4 cells/well) and HEK-293 cells (4–5 × 10^4 cells/well) expressing hP2X7 were seeded in poly-L-lysine-coated 96-well plates (Sarstedt) 24 h before the experiment. YO-PRO 1 dye was prepared at 5 μM in extracellular solution with low divalent cations (ECS-LD) buffer (147 mM NaCl, 10 mM HEPES, 13 mM glucose, 0.2 mM CaCl2, 2 mM KCl, pH 7.4) and added to cells after washing them with Dulbecco’s phosphate- buffered saline (DPBS) (PanBiotech) and incubated for 20 min at 37 °C. ATP-induced dye uptake, mediated by hP2X7 activation, was monitored using a Clariostar plate reader (excitation: 485 nm; emission: 538 nm) for 30 cycles (75–150 s/cycle), after recording the baseline for five cycles. hP2X7 activation was quantified at cycle 10 by calculating the fluorescence intensity (FI) ratio (Δ(Fcycle 10–F cycle 1)/cycle time).
Compounds 2 and 9, identified as hits, were further evaluated for concentration-dependent inhibition (IC50) of hP2X7 activation in the YO-PRO 1 dye uptake assay using HEK-293 cells stably transfected with hP2X7 (unfortunately, at this point in the study, the stably transfected 1321N1 cells lost P2X7 expression, and we were unable to recover them from frozen aliquots), for which the ATP EC50 was determined to be approximately 1 mM (Supporting material Figure 4C). Seven concentrations (100 to 0.03 μM) were tested, but due to precipitation at 100 μM, the DMSO concentration was increased to 1%.
3 Inhibitory concentration response evaluation of compounds 2 and 9 and their groups highlighted for SAR. […] Compound activity was evaluated along a time of 20 min (75 s per cycle) after ATP addition (700 μM). The fluorescence intensity (FI) values of the first 10 cycles were considered for assessing their ability to inhibit hP2X7. The curves represent three biological replicates (n = 4 per replicate). Data were normalized by setting as 100% the FI recorded by hP2X7 HEK-293 cells incubated in 1% DMSO and stimulated by ATP, and as 0% the FI recorded by the same cells but treated with ECS-LD (assay buffer). (C) Highlighted areas of compound 2 considered for SAR study. R1 refers to the ethyl-benzyl group of the molecules, and R2 and R3 refer to the benzo-(1,3)-dioxol groups. (D) Highlighted areas of compound 9 considered for SAR study. We have defined the area highlighted in yellow and numbered as 1 as the “front” region of the molecule and the one colored in pink and named as 2 as the “back” region of the molecule. L highlights the urea and amide linkers of compounds 2 and 9, respectively.
4 Evaluation of compound 2 and 9 analogue activity using YO-PRO 1 and MPR assays. The activity of compound 2 (A and B) and 9 (C and D) analogues was evaluated in YO-PRO 1 (A and C) and MPR (B and D) assays. The compounds were tested at 10 μM and preincubated for either 20 (YO-PRO 1) or 30 min (MPR). The baseline was recorded for 5 cycles before ATP treatment (1 mM). Fluorescence was recorded for 25 (YO-PRO 1) or 5 min (MPR). The data were normalized by setting as 100% for the fluorescence measured from hP2X7 HEK-293 cells incubated with vehicle (0.1% DMSO) and treated with 1 mM ATP and 0% for the fluorescence recorded by the cells not treated with ATP. The data shown correspond to three independent biological replicates (3 technical replicates per experiment; error bars represent the SEM from the mean values of each biological replicate (n = 3)). The statistical analysis was performed with one-way Anova using Dunnett’s function (P**** < 0.0001; P*** < 0.0003; P** < 0.002; P* < 0.02).

[2] = test system: HEK-293 WT cells; assay: Cytotoxicity assay (CellTiter Blue); assay type: cell-based; conditions: 10 μM, 24 h, nontransfected HEK-293 cells
Procedure: HEK-293 WT cells were seeded at 4 × 10^4 cells/well in 96-well plates precoated with poly-L-lysine. After 24 h, the cells were washed with DPBS and treated with test compounds (10 μM) in 2% FBS-containing medium for 24 h. After this, the medium containing the test compounds was replaced with 20% CellTiter-Blue reagent (Promega) in 2% FBS medium. After a 2-h incubation, fluorescence (excitation: […]; emission: […]) was measured using a Clariostar plate reader. Data were normalized to untreated control cells (100%) and wells without cells (0%).
5 Concentration inhibition curve determination for compound 2g (A) and evaluation of cytotoxicity for compounds 2, 9, and 2g. […] The data on the graph represent the mean from three independent experiments (n = 3 replicates per experiment). (B) The cytotoxicity of the compounds was evaluated on nontransfected HEK-293 cells using a CellTiter Blue assay. The cells were incubated for 24 h with the compounds at 10 μM. The fluorescent signal obtained from vehicle-treated cells (0.1% DMSO) was used to normalize the data to 100%, and the one obtained from wells not containing cells (BLANK) was set as 0%. The data are the combination of three biological replicates (error bars represent the SEM (n = 3)) analyzed by one-way ANOVA using Dunnet’s function (P**** < 0.0001; **< 0.002; * < 0.02; ns, non significant).
The potential cytotoxicity of the hit compounds identified, 2, 9, and 2g, was assessed at 10 μM by CellTiter Blue assay using nontransfected HEK-293 cells (Figure B).

[3] = YO-PRO 1 uptake, HEK-293 hP2X7 cells
[4] = Table 1, table names no assay, values of 2 and 9 are from YO-PRO 1 dye uptake in hP2X7 HEK-293 cells, read-out: IC50

| SMILES | Hill Slope of ATP concentration-response curve [1, 3] | EC50 ([1]; YO-PRO 1 uptake, HEK-293 hP2X7 cells, approximate value) [µM] | EC50 [1, 3] [µM] | reduction in cell viability [2] | IC50 [1, 4] [µM] | IC50 ([1]; YO-PRO 1 dye uptake, hP2X7 HEK-293 cells, 100 to 0.03 μM, 1% DMSO, read-out: IC50, inhibition of hP2X7 activation) [µM] |
| --- | --- | --- | --- | --- | --- | --- |
| Nc1ncnc2c1ncn2[C@@H]1O[C@H](COP(=O)(O)OP(=O)(O)OP(=O)(O)O)[C@@H](O)[C@H]1O [ATP, reference compound] | 1.397 | ~1000 | 1140 ± 239 | – | – | – |
| O=C(NCCc1ccccc1)NC(Cc1ccc2c(c1)OCO2)Cc1ccc2c(c1)OCO2 [Compound 2] | – | – | – | ~10% | 1.88 | 1.87 |
| O=C(CSc1ccccc1C(=O)Nc1ccnn1Cc1cccnc1)Nc1ccc2c(c1)OCO2 [Compound 9] | – | – | – | no significant reduction in cell viability | 6.82 | – |
